Here are results for 19 compounds from patent US20060135773A1, “Trisubstituted nitrogen modulators of tyrosine phosphatases” (priority 2004, published 2006).

This assay concerns the target T1, PTP-1B (Homo sapiens, UniProt P18031).
T1 construct: PTP-1B (purified, 1 mg/mL) as a 1:250 dilution
T1 sequence (P18031 1-321 limits assumed): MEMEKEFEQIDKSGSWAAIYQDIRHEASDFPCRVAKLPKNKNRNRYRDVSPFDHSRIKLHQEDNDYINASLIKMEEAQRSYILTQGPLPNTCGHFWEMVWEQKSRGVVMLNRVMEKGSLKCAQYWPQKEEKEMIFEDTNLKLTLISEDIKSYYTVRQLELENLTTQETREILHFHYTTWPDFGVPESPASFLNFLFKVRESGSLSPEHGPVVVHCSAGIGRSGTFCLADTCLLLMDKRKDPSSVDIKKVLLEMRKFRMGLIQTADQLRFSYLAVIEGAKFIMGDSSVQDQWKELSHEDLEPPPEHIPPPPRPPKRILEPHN
Put plainly: pNPP tyrosine phosphatase inhibition assay, PTP-1B. The class given is biochemical. Particulars: pNPP assay, PTP-1B; read-out: Activity Class (IC50 ranges). The gist of the method:
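Test compounds were screened at two final levels, 31.3 and 10 µM, against 4 µg/mL purified PTP-1B. The substrate was 10 mM p-nitrophenyl phosphate, with incubation for 10 min at 30°C before a K2CO3 quench. Activity was taken from A405.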

Bounds are passed on as bounds.

Regarding `COC(=O)c1cccc(-c2ccc(CN(Cc3ccc(C(F)(F)P(=O)(O)O)c(Cl)c3)S(=O)(=O)c3ccccc3OC)cc2)c1` [Compound 145, 4′-{[[3-Chloro-4-(difluoro-phosphono-methyl)-benzyl]-(2-methoxy-benzenesulfonyl)-amino]-methyl}-biphenyl-3-carboxylic acid methyl ester], the half-inhibitory concentration (IC50) is 250 to 499 nM. Under `COc1ccccc1S(=O)(=O)N(Cc1ccc(Cl)c(Cl)c1)Cc1ccc(C(F)(F)P(=O)(O)O)c(Cl)c1` [Compound 146, [(2-Chloro-4-{[(3,4-dichloro-benzyl)-(2-methoxy-benzenesulfonyl)-amino]-methyl}-phenyl)-difluoro-methyl]-phosphonic acid] stands 250 to 499 nM. For the compound `COc1ccccc1S(=O)(=O)N(Cc1ccc(-c2ccc(S(C)(=O)=O)cc2)cc1)Cc1ccc(C(F)(F)P(=O)(O)O)c(Cl)c1` [Compound 147, [(2-Chloro-4-{[(4′-methanesulfonyl-biphenyl-4-ylmethyl)-(2-methoxy-benzenesulfonyl)-amino]-methyl}-phenyl)-difluoro-methyl]-phosphonic acid], the IC50 lay within 100 to 249 nM. The result for `COc1ccccc1S(=O)(=O)N(Cc1ccc(-c2cccc(S(C)(=O)=O)c2)cc1)Cc1ccc(C(F)(F)P(=O)(O)O)c(Cl)c1` [Compound 148, [(2-Chloro-4-{[(3′-methanesulfonyl-biphenyl-4-ylmethyl)-(2-methoxy-benzenesulfonyl)-amino]-methyl}-phenyl)-difluoro-methyl]-phosphonic acid] reads 100 to 249 nM.

For the compound `COc1ccccc1S(=O)(=O)N(Cc1ccc(-c2cccc(C(=O)O)c2)cc1)Cc1ccc(C(F)(F)P(=O)(O)O)c(Cl)c1` [Compound 149, 4′-{[[3-Chloro-4-(difluoro-phosphono-methyl)-benzyl]-(2-methoxy-benzenesulfonyl)-amino]-methyl}-biphenyl-3-carboxylic acid], the IC50 is < 99 nM.

As to `COc1ccccc1S(=O)(=O)N(Cc1ccc(-c2ccc(S(C)(=O)=O)cc2)c(C)c1)Cc1ccc(C(F)(F)P(=O)(O)O)c(Cl)c1` [Compound 151, [(2-Chloro-4-{[(4′-methanesulfonyl-2-methyl-biphenyl-4-ylmethyl)-(2-methoxy-benzenesulfonyl)-amino]-methyl}-phenyl)-difluoro-methyl]-phosphonic acid], the IC50 was in the range of 250 to 499 nM. The result for `COc1ccccc1S(=O)(=O)N(Cc1ccc(-c2ccc(CC#N)cc2)cc1)Cc1ccc(C(F)(F)P(=O)(O)O)c(Cl)c1` [Compound 152, [(2-Chloro-4-{[(4′-cyanomethyl-biphenyl-4-ylmethyl)-(2-methoxy-benzenesulfonyl)-amino]-methyl}-phenyl)-difluoro-methyl]-phosphonic acid] reads 100 to 249 nM; that for `COc1ccccc1S(=O)(=O)N(Cc1ccc(-c2ccc(Cc3nn[nH]n3)cc2)cc1)Cc1ccc(C(F)(F)P(=O)(O)O)c(Cl)c1` [Compound 153, {[2-Chloro-4-({(2-methoxy-benzenesulfonyl)-[4′-(2H-tetrazol-5-ylmethyl)-biphenyl-4-ylmethyl]-amino}-methyl)-phenyl]-difluoro-methyl}-phosphonic acid], 100 to 249 nM. With `N#Cc1cccc(-c2ccc(CN(Cc3ccc(C(F)(F)P(=O)(O)O)c(Cl)c3)S(=O)(=O)c3ccc4ccccc4c3)cc2)c1` [Compound 154, [(2-Chloro-4-{[(3′-cyano-biphenyl-4-ylmethyl)-(naphthalene-2-sulfonyl)-amino]-methyl}-phenyl)-difluoro-methyl]-phosphonic acid], the IC50 fell in the range of 250 to 499 nM. Under `COc1ccccc1S(=O)(=O)N(Cc1ccc(-c2ccc(C#N)cc2)cc1)Cc1ccc(C(F)(F)P(=O)(O)O)c(Cl)c1` [Compound 155, [(2-Chloro-4-{[(4′-cyano-biphenyl-4-ylmethyl)-(2-methoxy-benzenesulfonyl)-amino]-methyl}-phenyl)-difluoro-methyl]-phosphonic acid] stands 100 to 249 nM; under `COc1ccccc1S(=O)(=O)N(Cc1ccc(-c2ccc(O)c(C(=O)O)c2)cc1)Cc1ccc(C(F)(F)P(=O)(O)O)c(Cl)c1` [Compound 156, 4′-{[[3-Chloro-4-(difluoro-phosphono-methyl)-benzyl]-(2-methoxy-benzenesulfonyl)-amino]-methyl}-4-hydroxy-biphenyl-3-carboxylic acid], < 99 nM. In the case of `O=P(O)(O)C(F)(F)c1ccc(CN(Cc2ccc(-c3cccc(-c4nn[nH]n4)c3)cc2)S(=O)(=O)c2ccc3ccccc3c2)cc1Cl` [Compound 158, {[2-Chloro-4-({(naphthalene-2-sulfonyl)-[3′-(2H-tetrazol-5-yl)-biphenyl-4-ylmethyl]-amino}-methyl)-phenyl]-difluoro-methyl}-phosphonic acid], the IC50 is < 99 nM.

For the compound `COc1ccccc1S(=O)(=O)N(Cc1ccc(-c2ccc(-c3nn[nH]n3)cc2)cc1)Cc1ccc(C(F)(F)P(=O)(O)O)c(Cl)c1` [Compound 159, {[2-Chloro-4-({(2-methoxy-benzenesulfonyl)-[4′-(2H-tetrazol-5-yl)-biphenyl-4-ylmethyl]-amino}-methyl)-phenyl]-difluoro-methyl}-phosphonic acid], the concentration for half-maximal inhibition (IC50) was < 99 nM. The result for `CCCc1cc(-c2ccc(CN(Cc3ccc(C(F)(F)P(=O)(O)O)c(Cl)c3)S(=O)(=O)c3ccccc3OC)cc2)cc(C(=O)OC)c1O` [Compound 160, 4′-{[[3-Chloro-4-(difluoro-phosphono-methyl)-benzyl]-(2-methoxy-benzenesulfonyl)-amino]-methyl}-4-hydroxy-5-propyl-biphenyl-3-carboxylic acid methyl ester] reads 250 to 499 nM; that for `COc1ccccc1S(=O)(=O)N(Cc1ccc(-c2cccc(C(N)=O)c2)cc1)Cc1ccc(C(F)(F)P(=O)(O)O)c(Cl)c1` [Compound 161, [(4-{[(3′-Carbamoyl-biphenyl-4-ylmethyl)-(2-methoxy-benzenesulfonyl)-amino]-methyl}-2-chloro-phenyl)-difluoro-methyl]-phosphonic acid], 100 to 249 nM. The result for `N#Cc1cccc(-c2ccc(CN(Cc3ccc(C(F)(F)P(=O)(O)O)c(Cl)c3)S(=O)(=O)c3ccc(F)cc3Cl)cc2)c1` [Compound 162, [(2-Chloro-4-{[(2-chloro-4-fluoro-benzenesulfonyl)-(3′-cyano-biphenyl-4-ylmethyl)-amino]-methyl}-phenyl)-difluoro-methyl]-phosphonic acid] reads 100 to 249 nM; that for `N#Cc1cccc(-c2ccc(CN(Cc3ccc(C(F)(F)P(=O)(O)O)c(Cl)c3)S(=O)(=O)c3ccccc3Cl)cc2)c1` [Compound 163, [(2-Chloro-4-{[(2-chloro-benzenesulfonyl)-(3′-cyano-biphenyl-4-ylmethyl)-amino]-methyl}-phenyl)-difluoro-methyl]-phosphonic acid], 100 to 249 nM; that for `COc1ccccc1S(=O)(=O)N(Cc1ccc(-c2cccc(C#N)c2)cc1)Cc1ccc(C(F)(F)P(=O)(O)OC)c(Cl)c1` [Compound 165, [(2-Chloro-4-{[(3′-cyano-biphenyl-4-ylmethyl)-(2-methoxy-benzenesulfonyl)-amino]-methyl}-phenyl)-difluoro-methyl]-phosphonic acid monomethyl ester], 2500 to 25000 nM. Under `COc1ccccc1S(=O)(=O)N(Cc1ccc(C(F)(F)P(=O)(O)O)c(Cl)c1)C(C)c1ccccc1` (stereo not shown) [Compound 166, [(2-Chloro-4-{[(2-methoxy-benzenesulfonyl)-(1-phenyl-ethyl)-amino]-methyl}-phenyl)-difluoro-methyl]-phosphonic acid] stands 2500 to 25000 nM.
